Data as given in patent publication US11071731B2, “Allosteric modulators of the mu opioid receptor” (Chiromics, LLC, priority 2017, dated 2021).
pEC50: −log10 of the molar value. Where two headings read alike, the source gives them in different places.

Key:
[1] = Plasma, brain and spinal cord concentrations after subcutaneous dosing; assay type: in vivo; conditions: subcutaneous 15 mg/kg, ICR rats
Procedure: Concentrations of subcutaneously injected compound 9 in spinal tissue (where the DRG are located) were also assessed.

MOR [2] = target: T1, MOR (Homo sapiens, UniProt P35372); assay type: cell-based; conditions: cAMP; EC20 EM2 agonism of MOR
T1 sequence (P35372 whole entry): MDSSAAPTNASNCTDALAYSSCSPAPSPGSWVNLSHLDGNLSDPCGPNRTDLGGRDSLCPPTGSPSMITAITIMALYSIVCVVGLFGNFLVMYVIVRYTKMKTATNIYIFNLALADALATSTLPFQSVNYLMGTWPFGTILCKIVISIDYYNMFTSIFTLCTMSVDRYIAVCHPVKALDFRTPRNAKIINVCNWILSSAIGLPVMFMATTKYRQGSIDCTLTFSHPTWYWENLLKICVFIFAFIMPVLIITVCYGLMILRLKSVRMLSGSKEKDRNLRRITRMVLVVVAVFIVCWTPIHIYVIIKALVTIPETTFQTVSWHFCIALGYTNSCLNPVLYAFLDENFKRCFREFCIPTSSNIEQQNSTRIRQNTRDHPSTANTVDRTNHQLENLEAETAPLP

MOR [3] = target: T1, MOR; assay type: cell-based; conditions: β-arrestin; EC20 EM2 agonism of MOR
MOR [4] = target: T1, MOR; assay: cell-based; conditions: EC20 Oxycodone agonism of MOR
MOR [5] = target: T1, MOR; assay: cell-based; conditions: EC20 morphine agonism of MOR
MOR [6] = target: T1, MOR; assay: cell-based; conditions: EC20 morphine agonism of MOR; remark: listed apart in the source
Sprague-Dawley rats = assay: Respiratory depression: blood oxygen saturation by pulse oximetry; assay type: in vivo; conditions: subcutaneous; morphine 10 mg/kg, compound 9 15, 30, 60 mg/kg; 90 minutes
Procedure: Respiratory depression is a significant side effect associated with opioid treatment of acute and chronic pain. Drug-related overdose deaths are often a function of the respiratory depression which occurs with opioid use. Efforts to generate analgesics that dissociate pain relief from side effects are critical to the advancement of public health. […] […].
Blood oxygen saturation was assessed in awake rats with the MouseOx oximeter system (Starr Life Sciences, Holliston, Mass.). Up to 5 samples were measured every 5 minutes for 15 minutes prior to dosing and 90 minutes after dosing. Each animal was habituated to the device over several days prior to the study.

MOR [7] = target: T1, MOR; assay type: cell-based
[8] = Plasma concentration time-course after SC or IP dosing; assay type: in vivo; conditions: 15 mg/kg, intraperitoneal or subcutaneous, CD-1 mice, blood samples
Procedure: To be useful as a therapeutic, a MOR PAM must not only be able to activate endogenous and non-endogenous orthosteric ligands of the MOR, it must also persist in the body in concentrations sufficient to exert its allosteric effect. To test intracorporeal persistence, murine models were chosen, based on the preponderance of data available linking endogenous opioids to analgesic mechanisms. Compound 9 (Table 10) was formulated for dosing in CD-1 mice. Two mice per group were tested and each group was administered 15 mg/kg of the compound. Concentrations of the compound were measured by mass spectrometry of blood samples.

MOR [9] = target: T1, MOR; assay: EM1 concentration-response curves for β-arrestin recruitment with or without compound, full functional allosteric model; assay type: cell-based
MOR [10] = target: T1, MOR; assay: cell-based; conditions: EC20 Oxycodone agonism of MOR; remark: listed apart in the source
CD1 mice = assay: Warm water tail-flick assay, compound alone (basal EM1 only); assay type: in vivo; conditions: 15 mg/kg subcutaneous, 30 minutes after dosing, no exogenous EM1
Source text: An acute pain model was used to determine the analgesic effect of a MOR PAM administered by itself (i.e., in the absence of exogenous opioid). This approach avoids the complexity of matching the pharmacokinetic profile of endomorphin release in response to a pain-inducing insult with a (1) particular MOR PAM (to account for basal endomorphin analgesis) and (2) the measurement window of the study, as would be required for a chronic pain study. Accordingly, an acute pain model, in which the pharmacodynamic measurement was performed directly after the insult, was employed. This was expected to isolate the low basal levels of EM1 analgesis that existed prior to the insult, thereby eliminating the contribution of the time course of release of endogenous opioids in response to the insult. Mousa et al., supra.
The warm water tail-flick assay was chosen as the acute pain model for the reasons described above. […] Przewlocka et al., (1999), supra. First, minimum and sub-efficacious dose of EM1, applied via intrathecal injection to rats, were identified. […] In addition, the time required for maximal response to an intrathecal injection of EM1 to be observed, as well as the time required for a return to basal levels of antinociception, were determined and likewise found to be in agreement with those found in the literature. […]

mu opioid receptor (MOR) = mu opioid receptor (MOR) (Homo sapiens, UniProt P35372); assay: PathHunter β-arrestin recruitment assay, PAM mode with EC20 endomorphin-1; assay type: cell-based
Chain of mu opioid receptor (MOR) (P35372 whole entry, the tested form may be a part): as the sequence (P35372 whole entry) above
How it was run: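 β-Arrestin recruitment to the receptor was tracked by chemiluminescent β-galactosidase activity from complementing fragments (ED on receptor, EA on β-arrestin). Per-compound outputs were EC50 and percent maximal response.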

## Fc1cnc(Cl)nc1N1CCCCC1c1cccc(C(F)(F)F)c1 (single isomer, unassigned) [compound 9]
[1]
  exposure in spinal tissue and brain: good exposures in spinal tissue
MOR [2]
  Max. Response: 80
MOR [3]
  Max. Response: 138
MOR [4]; RC50, cAMP
  pEC50: 5.50
MOR [4]; cAMP
  Max. Response: 40
MOR [5]; RC50, β-arrestin
  pEC50: 4.97
MOR [5]; β-arrestin
  Max. Response: 456
MOR [6]; RC50, cAMP
  pEC50: 5.53
MOR [6]; cAMP
  Max. Response: 38
Sprague-Dawley rats
  oxygen saturation / respiratory depression: did not induce respiratory depression
MOR [7]; cAMP assay
  shift in the potency of EM1: concentration-dependent and saturable leftward shifts
MOR [7]; cAMP signaling
  factor of increase of the affinity (α) of EM1: 2
  factor of increase of the efficacy (β) of EM1: 1.8
MOR [7]; cAMP signaling, EM1
  effective potency for PAM effect: 44 nM
[8]
  exposure and half-life: exposures and an a half-life appropriate for in vivo studies
MOR [9]
  effective potency for PAM effect: 70.8 nM
  factor of increase of the affinity (α) of EM1: 9
  factor of increase of the efficacy (β) of EM1: 3
  shift in the potency of EM1: concentration-dependent and saturable leftward shifts
MOR [9]; β-arrestin endomorphin responses
  αβ product, in vitro: 27
MOR [10]; RC50, β-arrestin
  pEC50: 4.96
MOR [10]; β-arrestin
  Max. Response: 296
CD1 mice
  antinociceptive effect, tail-flick latency: No antinociceptive effects were observed
Mu opioid receptor (MOR); EM1-mediated MOR agonism, read-out: RC50 for β-arrestin recruitment
  pEC50: 6.44
Mu opioid receptor (MOR); maximal response for β-arrestin recruitment
  β-arr Max. Resp.: F (F represents a maximal response of > 60%)
Mu opioid receptor (MOR); β-arrestin recruitment, read-out: β-arr. EC50
  pEC50: > 6.15
Mu opioid receptor (MOR); β-arrestin, EC20 EM-1 agonism of MOR
  Max. Response: 210
